Source: ChEMBL document CHEMBL4627382, “Iheyamides A-C, Antitrypanosomal Linear Peptides Isolated from a Marine Dapis sp. Cyanobacterium” (J Nat Prod, 2020)

Key:
[1] = system: Trypanosoma brucei rhodesiense; experiment: Antitrypanosomal activity against Trypanosoma brucei rhodesiense IL-1501 incubated for 69 hrs by AlamarBlue assay; type: functional, organism-based; details: IL-1501, 69 h
[2] = system: Trypanosoma brucei brucei; experiment: Antitrypanosomal activity against Trypanosoma brucei brucei 221 incubated for 69 hrs by AlamarBlue assay; type: functional, organism-based; details: Trypanosoma brucei, 221, 69 h
WI-38 = experiment: Cytotoxicity against human WI38 cells incubated for 72 hrs by MTT assay; type: cell-based; details: WI-38, 72 h
[3] = Selectivity ratio of IC50 for human WI38 cells to IC50 for Trypanosoma brucei rhodesiense IL-1501; type: toxicity; details: read-out: Ratio IC50
[4] = Selectivity ratio of IC50 for human WI38 cells to IC50 for Trypanosoma brucei brucei 221; type: toxicity; details: read-out: Ratio IC50

IC50 [1]	IC50 [2]	Compound	IC50 (WI-38)	selectivity ratio [3]	selectivity ratio [4]
> 20 µM	> 20 µM	CC[C@@H](C)[C@H](C(=O)O)N(C)C(=O)[C@@H]1CCCN1C(=O)[C@H](C(C)C)N(C)C(=O)[C@@H](Cc1ccccc1)NC(=O)[C@H](Cc1ccccc1)N(C)C	> 20 µM	–	–
1.5 µM	1.5 µM	CC[C@@H](C)[C@H](C(=O)N1CCC[C@H]1C(=O)N1C(=O)C=C(OC)[C@@H]1C(C)C)N(C)C(=O)[C@@H]1CCCN1C(=O)[C@H](C(C)C)N(C)C(=O)[C@@H](Cc1ccccc1)NC(=O)[C@H](Cc1ccccc1)N(C)C	18 µM	> 10	> 10
> 20 µM	> 20 µM	CC[C@@H](C)[C@H](C(=O)N1CCC[C@H]1C(=O)O)N(C)C(=O)[C@@H]1CCCN1C(=O)[C@H](C(C)C)N(C)C(=O)[C@@H](Cc1ccccc1)NC(=O)[C@H](Cc1ccccc1)N(C)C	> 20 µM	–	–
